Experimental data reported in article PMC6857076 (Pharmacology Research & Perspectives, 2019).
Like-named read-outs stand apart in the source and are kept apart here.

Experiments:
[1] = tested on: IL-13 cytokine receptor (JAK1/JAK2, JAK1/TYK2); test: Human whole blood, IL-13-induced pSTAT6, CD19+ cells; assay type: cell-based
Method: Blood was warmed to 37°C prior to use.
(§1) Anti‐cell surface antibodies were added 15 minutes prior to cytokine stimulation; anti‐CD14‐Pacific Blue (0.5 µL/well) to GM‐CSF, IFNγ, and TPO‐treated samples; anti‐CD3‐BV650 (0.5 µL/well) plus anti‐CD14‐Pacific Blue (0.5 µL/well) to IL‐6‐treated samples; and anti‐CD19‐BV421 (0.5 µL/well) plus anti‐CD14‐AF488 (0.5 µL/well) to IL‐13‐treated samples.
(§2) The lymphocyte population was gated for pSTAT histogram analysis for IFNα‐, IL‐2‐, IL‐3‐, IL‐4‐, IL‐7‐, IL‐10‐, IL‐12‐, IL‐15‐, IL‐21‐, IL‐23‐, and IL‐27‐treated samples; granulocyte population for G‐CSF‐treated samples; CD14^+ cells for GM‐CSF‐, IFNγ‐, and TPO‐treated samples; CD3^+ cells and CD14^+ cells for IL‐6‐treated samples; CD14^+ cells and CD19^+ cells for IL‐13‐treated samples; all events (entire populations) for EPO‐treated cells. Background fluorescence was defined using unstimulated cells and a gate was placed at the foot of the peak to include ~0.5% gated population.
(§3) Histogram statistical analysis was performed using FACSDiva version 8.0.1 (BD Biosciences). Relative fluorescence unit (RFU), which measures the level of pSTAT, was calculated by multiplying the percent positive population and its mean fluorescence. Data from 11 compound concentrations (singlicate at each concentration) were normalized as a percentage of control, as shown in Equation 1:(1) %ofcontrol=100×A−B/C−B
(§4) A, RFU from wells containing compound and cytokine; B, RFU from wells without cytokine (minimum fluorescence); C, RFU from wells containing only cytokine (maximum fluorescence).
(§5) Inhibition curves and IC50 values were determined using Prism software (Version 7, GraphPad).

[2] = tested on: IL-15 cytokine receptor (JAK1/JAK3); test: Human whole blood, IL-15-induced pSTAT5, lymphocytes; assay type: cell-based; details: for IC50: Homo sapiens, Lymphocyte
Method: Blood was warmed to 37°C prior to use.
(§6) Then, 5 µL of PBS or cytokine was added to each well (5 µL/well; final, 10 U/mL EPO, 100 ng/mL G‐CSF, 10 ng/mL GM‐CSF, 5000 U/mL IFNα, 100 ng/mL IFNγ, 50 ng/mL IL‐2, 50 ng/mL IL‐3, 5 ng/mL IL‐4, 50 ng/mL IL‐6, 30 ng/mL IL‐7, 30 ng/mL IL‐10, 30 ng/mL IL‐12, 30 ng/mL IL‐13, 30 ng/mL IL‐15, 50 ng/mL IL‐21, 25 ng/mL IL‐23, 1000 ng/mL IL‐27) and incubated for 15 minutes. Anti‐cell surface antibodies were added 15 minutes prior to cytokine stimulation; anti‐CD14‐Pacific Blue (0.5 µL/well) to GM‐CSF, IFNγ, and TPO‐treated samples; anti‐CD3‐BV650 (0.5 µL/well) plus anti‐CD14‐Pacific Blue (0.5 µL/well) to IL‐6‐treated samples; and anti‐CD19‐BV421 (0.5 µL/well) plus anti‐CD14‐AF488 (0.5 µL/well) to IL‐13‐treated samples.
(§7) One more wash was done with staining buffer and all samples were finally suspended in 150 µL/well of the desired anti‐pSTAT antibodies at 1:150 dilution in staining buffer; anti‐pSTAT1‐AF647 in IFNγ‐treated samples; anti‐pSTAT1‐AF488 and anti‐pSTAT3‐AF647 in IFNα‐, IL‐6‐, and IL‐27‐treated samples; anti‐pSTAT3‐AF647 in G‐CSF‐, IL‐10‐, IL‐21‐, and IL‐23‐treated samples; anti‐pSTAT4‐AF647 in IL‐12‐treated samples; anti‐pSTAT5‐AF647 in EPO‐, GM‐CSF‐, IL‐2‐, IL‐3‐, IL‐7‐, IL‐15‐, and TPO‐treated samples; anti‐pSTAT5‐AF488 and anti‐pSTAT6‐AF647 in IL‐4‐treated samples; and anti‐pSTAT6‐AF647 in IL‐13‐treated samples.
as §2, §3, §4, §5

[3] = tested on: IL-21 cytokine receptor (JAK1/JAK3); test: Human whole blood, IL-21-induced pSTAT3, lymphocytes; assay type: cell-based; details: Lymphocyte
Method: Blood was warmed to 37°C prior to use.
as §6, §7, §2, §3, §4, §5

[4] = tested on: IFNα cytokine receptor (JAK1/TYK2); test: Human whole blood, IFNα-induced pSTAT3, lymphocytes; assay type: cell-based; details: Lymphocyte
Method: Blood was warmed to 37°C prior to use.
as §6, §7, §2, §3, §4, §5

[5] = tested on: IL-7 cytokine receptor (JAK1/JAK3); test: Human whole blood, IL-7-induced pSTAT5, lymphocytes; assay type: cell-based; details: Lymphocyte
Method: Blood was warmed to 37°C prior to use.
as §6, §7, §2, §3, §4, §5

[6] = tested on: IL-2 cytokine receptor (JAK1/JAK3); test: Human whole blood, IL-2-induced pSTAT5, lymphocytes; assay type: cell-based; details: Lymphocyte
Method: Blood was warmed to 37°C prior to use.
as §6, §7, §2, §3, §4, §5

[7] = unbound, Cav × fu; filgotinib 200 mg QD
[8] = tested on: EPO cytokine receptor (JAK2/JAK2); test: Human whole blood spiked with CD34+-derived erythroid progenitor cells, EPO-induced pSTAT5; assay type: cell-based; details: for IC50: Erythroid progenitor cell, human whole blood
Method: CD34^+ cells were then harvested, washed once with Dulbecco's (D)‐PBS, and suspended at 0.5 x 10^6 cells/mL in human whole blood to be used in the EPO stimulation assay.
Blood was warmed to 37°C prior to use.
Background fluorescence was defined using unstimulated cells and a gate was placed at the foot of the peak to include ~0.5% gated population.
as §3, §4, §5

[9] = tested on: IFNα cytokine receptor (JAK1/TYK2); test: Human whole blood, IFNα-induced pSTAT1, lymphocytes; assay type: cell-based; details: for IC50: Homo sapiens, Lymphocyte
Method: Blood was warmed to 37°C prior to use.
as §6, §7, §2, §3, §4, §5

[10] = tested on: IL-4 cytokine receptor (JAK1/JAK3); test: Human whole blood, IL-4-induced pSTAT6, lymphocytes; assay type: cell-based; details: Lymphocyte
Method: Blood was warmed to 37°C prior to use.
as §6, §7, §2, §3, §4, §5

[11] = tested on: IL-6 cytokine receptor (JAK1/JAK2, JAK1/TYK2); test: Human whole blood, IL-6-induced pSTAT1, CD14+ cells; assay type: cell-based
Method: Blood was warmed to 37°C prior to use.
as §1, §2, §3, §4, §5

[12] = tested on: IFNγ cytokine receptor (JAK1/JAK2); test: Human whole blood, IFNγ-induced pSTAT1, CD14+ cells; assay type: cell-based; details: for IC50: Homo sapiens
Method: Blood was warmed to 37°C prior to use.
as §6, §7, §2, §3, §4, §5

[13] = tested on: GM-CSF cytokine receptor (JAK2/JAK2); test: Human whole blood, GM-CSF-induced pSTAT5, CD14+ cells; assay type: cell-based
Method: Blood was warmed to 37°C prior to use.
as §6, §7, §2, §3, §4, §5

[14] = tested on: IL-3 cytokine receptor (JAK2/JAK2); test: Human whole blood, IL-3-induced pSTAT5, lymphocytes; assay type: cell-based
Method: Blood was warmed to 37°C prior to use.
as §6, §7, §2, §3, §4, §5

[15] = tested on: IL-27 cytokine receptor (JAK1/JAK2, JAK1/TYK2); test: Human whole blood, IL-27-induced pSTAT1, lymphocytes; assay type: cell-based; details: Lymphocyte
Method: Blood was warmed to 37°C prior to use.
as §1, §2, §3, §4, §5

[16] = tested on: IL-12 cytokine receptor (JAK2/TYK2); test: Human whole blood, IL-12-induced pSTAT4, lymphocytes; assay type: cell-based; details: for IC50: Homo sapiens, Lymphocyte
Method: Blood was warmed to 37°C prior to use.
as §6, §7, §2, §3, §4, §5

[17] = tested on: IL-13 cytokine receptor (JAK1/JAK2, JAK1/TYK2); test: Human whole blood, IL-13-induced pSTAT6, CD14+ cells; assay type: cell-based
Method: Blood was warmed to 37°C prior to use.
as §1, §2, §3, §4, §5

[18] = tested on: IL-6 cytokine receptor (JAK1/JAK2, JAK1/TYK2); test: Human whole blood, IL-6-induced pSTAT1, CD3+ cells; assay type: cell-based; details: for IC50: Homo sapiens
Method: Blood was warmed to 37°C prior to use.
as §6, §7, §2, §3, §4, §5

[19] = human; filgotinib 200 mg QD; cited from earlier work
[20] = tested on: IL-6 cytokine receptor (JAK1/JAK2, JAK1/TYK2); test: Human whole blood, IL-6-induced pSTAT3, CD3+ cells; assay type: cell-based
Method: Blood was warmed to 37°C prior to use.
as §1, §2, §3, §4, §5

[21] = phase 3 RA studies; cited from earlier work
[22] = tested on: IL-10 cytokine receptor (JAK1/TYK2); test: Human whole blood, IL-10-induced pSTAT3, lymphocytes; assay type: cell-based; details: Lymphocyte
Method: Blood was warmed to 37°C prior to use.
as §6, §7, §2, §3, §4, §5

[23] = in vitro; details: both, human, pooled human plasma
[24] = tested on: CRP; details: RA; filgotinib 200 mg QD; cited from earlier work
[25] = tested on: IL-27 cytokine receptor (JAK1/JAK2, JAK1/TYK2); test: Human whole blood, IL-27-induced pSTAT3, lymphocytes; assay type: cell-based; details: Lymphocyte
Method: Blood was warmed to 37°C prior to use.
as §6, §7, §2, §3, §4, §5

[26] = tested on: TPO cytokine receptor (JAK2/JAK2); test: Human whole blood, TPO-induced pSTAT5, CD14+ cells; assay type: cell-based
Method: Blood was warmed to 37°C prior to use.
as §6, §7, §2, §3, §4, §5

O=C(Nc1nc2cccc(-c3ccc(CN4CCS(=O)(=O)CC4)cc3)n2n1)C1CC1 [Filgotinib]
IC50 ([1]; read-out: IC50, IL-13, pSTAT6, CD19+ cells): 2120 nM | IC50 ([1]; read-out: IC50,u, IL-13, pSTAT6, CD19+ cells): 853 nM | LogIC50, IL-15 induced pSTAT5, single experiment [2]: -5.526 log[M] | IC50 ([2]; read-out: IC50, IL-15, pSTAT5): 3380 nM | IC50 ([2]; read-out: IC50, IL-15 induced pSTAT5, single experiment): 2980 nM | IC50 ([2]; read-out: IC50,u, IL-15, pSTAT5): 1360 nM | IC50 ([3]; read-out: IC50, IL-21, pSTAT3): 3980 nM | IC50 ([3]; read-out: IC50,u, IL-21, pSTAT3): 1600 nM | IC50 ([4]; read-out: IC50, IFNα, pSTAT3): 1060 nM | IC50 ([4]; read-out: IC50,u, IFNα, pSTAT3): 425 nM | IC50 ([5]; read-out: IC50, IL-7, pSTAT5): 3620 nM | IC50 ([5]; read-out: IC50,u, IL-7, pSTAT5): 1460 nM | IC50 ([6]; read-out: IC50, IL-2, pSTAT5): 2660 nM | IC50 ([6]; read-out: IC50,u, IL-2, pSTAT5): 1070 nM | Cav,u [7]: 232.0 nM | IC50 ([8]; Figure S1F, Donor 573, Exp 1, one of four experiments, read-out: IC50, EPO induced pSTAT5, single experiment): 7580 nM | IC50 ([8]; four donors, mean (SD), erythroid progenitor cells, JAK2/JAK2, EPO 10 U/mL, read-out: IC50, EPO, pSTAT5): 9900 nM | IC50 ([8]; unbound (IC50/blood:plasma ratio × fu), erythroid progenitor cells, JAK2/JAK2, read-out: IC50,u, EPO, pSTAT5): 3970 nM | LogIC50, EPO induced pSTAT5, single experiment ([8]; Figure S1F, Donor 573, Exp 1): -5.121 log[M] | LogIC50, IFNα induced pSTAT1, single experiment ([9]; Figure S1B, Donor 256, Exp 1): -5.931 log[M] | IC50 ([9]; read-out: IC50, IFNα induced pSTAT1, single experiment): 1170 nM | IC50 ([9]; read-out: IC50, IFNα, pSTAT1): 1320 nM | IC50 ([9]; read-out: IC50,u, IFNα, pSTAT1): 531 nM | IC50 ([10]; read-out: IC50, IL-4, pSTAT6): 3620 nM | IC50 ([10]; read-out: IC50,u, IL-4, pSTAT6): 1460 nM | IC50 ([11]; read-out: IC50, IL-6, pSTAT1, CD14+ cells): 810 nM | IC50 ([11]; read-out: IC50,u, IL-6, pSTAT1, CD14+ cells): 325 nM | LogIC50, IFNγ induced pSTAT1, single experiment [12]: -5.17 log[M] | IC50 ([12]; read-out: IC50, IFNγ induced pSTAT1, single experiment): 6760 nM | IC50 ([12]; read-out: IC50, IFNγ, pSTAT1): 6950 nM | IC50 ([12]; read-out: IC50,u, IFNγ, pSTAT1): 2790 nM | IC50 ([13]; Homo sapiens, read-out: IC50, GM-CSF, pSTAT5): > 20000 nM | IC50, GM-CSF, pSTAT5 ([13]; human whole blood, four donors, mean (SD), CD14+ cells, JAK2/JAK2, GM-CSF 10 ng/mL): not measurable | IC50 ([14]; Homo sapiens, Lymphocyte, read-out: IC50, IL-3, pSTAT5): > 20000 nM | IC50, IL-3, pSTAT5 ([14]; human whole blood, four donors, mean (SD), lymphocytes, JAK2/JAK2, IL-3 50 ng/mL): not measurable | IC50 ([15]; read-out: IC50, IL-27, pSTAT1): 2110 nM | IC50 ([15]; read-out: IC50,u, IL-27, pSTAT1): 848 nM | LogIC50, IL-12 induced pSTAT4, single experiment [16]: -5.125 log[M] | IC50 ([16]; read-out: IC50, IL-12, pSTAT4): 8030 nM | IC50 ([16]; read-out: IC50, IL-12 induced pSTAT4, single experiment): 7510 nM | IC50 ([16]; read-out: IC50,u, IL-12, pSTAT4): 3220 nM | IC50 ([17]; read-out: IC50, IL-13, pSTAT6, CD14+ cells): 5140 nM | IC50 ([17]; read-out: IC50,u, IL-13, pSTAT6, CD14+ cells): 2060 nM | LogIC50, IL-6 induced pSTAT1 (CD3+ cells), single experiment [18]: -6.12 log[M] | IC50 ([18]; read-out: IC50, IL-6, pSTAT1, CD3+ cells): 671 nM | IC50 ([18]; read-out: IC50, IL-6 induced pSTAT1 (CD3+ cells), single experiment): 759 nM | IC50 ([18]; read-out: IC50,u, IL-6, pSTAT1, CD3+ cells): 270 nM | Cav [19]: 474 nM | IC50 ([20]; read-out: IC50, IL-6, pSTAT3, CD3+ cells): 4940 nM | IC50 ([20]; read-out: IC50,u, IL-6, pSTAT3, CD3+ cells): 1980 nM | herpes zoster occurrence [21]: reported | IC50 ([22]; read-out: IC50, IL-10, pSTAT3): 2550 nM | IC50 ([22]; read-out: IC50,u, IL-10, pSTAT3): 1020 nM | fraction unbound at 6 h, 1 μmol/L [23]: 0.49 | reduction of CRP levels from baseline to week 12 [24]: -14.9 mg/L | IC50 ([25]; read-out: IC50, IL-27, pSTAT3): 1160 nM | IC50 ([25]; read-out: IC50,u, IL-27, pSTAT3): 468 nM | IC50 ([26]; Homo sapiens, read-out: IC50, TPO, pSTAT5): > 17600 nM | IC50, TPO, pSTAT5 ([26]; human whole blood, four donors, mean (SD), CD14+ cells, JAK2/JAK2): not measurable
